Source: PubChem BioAssay AID248 (DTP/NCI, 2004)
Values joined by “and” are separate entries in the source; they are usually repeats but may differ in a detail not shown here. Equal values may be shown once. Inconclusive results and toxic doses are left out. Rule as the data show it: active = T/C of 150% or more; inactive = T/C below 125%.

Tested on: L1210 leukemia ip in BDF1 mice, survival T/C
Assay: NCI In Vivo Anticancer Drug Screen. Data for tumor model L1210 Leukemia (intraperitoneal) in B6D2F1 (BDF1) mice
Conditions: endpoint: mean survival time, higher = longer survival
In short: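 Tumor was transplanted into mice, which were then dosed with test compound or vehicle alone. Survival was recorded for each group, and the treated figure was expressed relative to the control figure.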

[1] = dose: 25.0 mg/kg/injection, schedule: Q01DX009 (ip), vehicle: saline with Tween-80
[2] = dose: 50.0 mg/kg/injection, schedule: Q01DX009 (ip), vehicle: saline with Tween-80
[3] = dose: 100.0 mg/kg/injection, schedule: Q01DX001 (ip), vehicle: saline
[4] = dose: 200.0 mg/kg/injection, schedule: Q01DX001 (ip), vehicle: saline
[5] = dose: 400.0 mg/kg/injection, schedule: Q01DX001 (ip), vehicle: saline
[6] = dose: 100.0 mg/kg/injection, schedule: Q04DX002 (ip), vehicle: Klucel (hydroxypropylcellulose) (HPC)
[7] = dose: 200.0 mg/kg/injection, schedule: Q04DX002 (ip), vehicle: Klucel (hydroxypropylcellulose) (HPC)
[8] = dose: 75.0 mg/kg/injection, schedule: Q01DX001 (ip), vehicle: carboxymethylcellulose (CMC)
[9] = dose: 150.0 mg/kg/injection, schedule: Q01DX001 (ip), vehicle: carboxymethylcellulose (CMC)
[10] = dose: 100.0 mg/kg/injection, schedule: Q01DX001 (ip), vehicle: carboxymethylcellulose (CMC)
[11] = dose: 200.0 mg/kg/injection, schedule: Q01DX001 (ip), vehicle: carboxymethylcellulose (CMC)
[12] = dose: 400.0 mg/kg/injection, schedule: Q01DX001 (ip), vehicle: carboxymethylcellulose (CMC)
[13] = dose: 100.0 mg/kg/injection, schedule: Q01DX009 (ip), vehicle: saline with Tween-80
[14] = dose: 200.0 mg/kg/injection, schedule: Q01DX009 (ip), vehicle: saline with Tween-80
[15] = dose: 400.0 mg/kg/injection, schedule: Q01DX009 (ip), vehicle: saline with Tween-80
[16] = dose: 100.0 mg/kg/injection, schedule: Q04DX003 (ip), vehicle: saline
[17] = dose: 200.0 mg/kg/injection, schedule: Q04DX003 (ip), vehicle: saline
[18] = dose: 400.0 mg/kg/injection, schedule: Q04DX003 (ip), vehicle: saline

Measured: T/C

COc1ccccc1OCC(O)COc1ccccc1OC
inactive: dose: 12.5 mg/kg/injection, schedule: Q01DX009 (ip), vehicle: saline with Tween-80 92 % of control | dose: 12.5 mg/kg/injection, schedule: Q04DX003 (ip), vehicle: saline 106 % of control | [1] 95 % of control | dose: 25.0 mg/kg/injection, schedule: Q04DX003 (ip), vehicle: saline 105 % of control | [2] 94 % of control | dose: 50.0 mg/kg/injection, schedule: Q04DX003 (ip), vehicle: saline 105 % of control | [3] 104 % of control | [4] 100 % of control | [5] 102 % of control

Cc1ccc(C(=O)N2C(=O)Cc3ccccc32)cc1
inactive: dose: 50.0 mg/kg/injection, schedule: Q04DX002 (ip), vehicle: Klucel (hydroxypropylcellulose) (HPC) 90 % of control | [6] 94 % of control | [7] 94 % of control

CCCC1=Cc2cc3c(cc2C1N(C)C)OCO3 (stereo not given)
inactive: dose: 100.0 mg/kg/injection, schedule: Q01DX001 (ip), vehicle: Klucel (hydroxypropylcellulose) (HPC) 97 % of control | dose: 200.0 mg/kg/injection, schedule: Q01DX001 (ip), vehicle: Klucel (hydroxypropylcellulose) (HPC) 97 % of control

COc1ccc(Cc2c3cc(OC)c(OC)cc3cc[n+]2Cc2ccc(N(CCCl)CCCl)cc2)cc1OC
inactive: [8] 100 % of control | [9] 94 % of control

COc1ccccc1NP1(=O)OCC(C)([N+](=O)[O-])CO1 (stereo not given)
inactive: [10] 89 % of control | [11] 104 % of control | [12] 93 % of control

NC(=S)S.[Zn+2]
inactive: dose: 13.3 mg/kg/injection, schedule: Q01DX Z (ip), vehicle: methylcellulose (MC) 96 % of control | dose: 20.0 mg/kg/injection, schedule: Q01DX Z (ip), vehicle: methylcellulose (MC) 90 % of control | dose: 30.0 mg/kg/injection, schedule: Q01DX Z (ip), vehicle: methylcellulose (MC) 90 % of control

N#CC1(c2ccc3c(c2)OCO3)C(c2ccc3c(c2)OCO3)CC(O)(c2ccccc2)C1C(=O)c1ccccc1 (stereo not given)
inactive: [13] 96 % of control | [14] 89 % of control | [15] 102 % of control

O=C1c2ccccc2C(=O)N1CCOCCOCCN1C(=O)c2ccccc2C1=O
inactive: [1] 108 % of control | [2] 96 % of control and 92 % of control | [13] 88 % of control and 92 % of control | [6] 98 % of control | [14] 98 % of control | [7] 98 % of control | dose: 400.0 mg/kg/injection, schedule: Q04DX002 (ip), vehicle: Klucel (hydroxypropylcellulose) (HPC) 98 % of control

CC1(C)Cc2nc3ccccc3nc2-c2ccccc21
inactive: [16] 95 % of control | [17] 90 % of control | [18] 100 % of control

CC1CCC2C(=CC(=O)CC2(C)C)C1 (stereo not given)
inactive: [3] 109 % of control | [16] 108 % of control | [4] 101 % of control | [17] 104 % of control | [5] 96 % of control | [18] 103 % of control

CC1CCC(C(O)(C(=O)O)C2CCCCC2)CC1C (stereo not given)
inactive: [8] 97 % of control | [9] 105 % of control | dose: 300.0 mg/kg/injection, schedule: Q01DX001 (ip), vehicle: carboxymethylcellulose (CMC) 100 % of control

C=C1C(=O)OCC1(C(=O)OCC)C(=O)OCC
inactive: dose: 5.0 mg/kg/injection, schedule: Q01DX009 (ip), vehicle: saline 98 % of control | dose: 10.0 mg/kg/injection, schedule: Q01DX009 (ip), vehicle: saline 103 % of control | dose: 20.0 mg/kg/injection, schedule: Q01DX009 (ip), vehicle: saline 95 % of control

Cc1ccc2c(ccc3nnc(C)n32)c1
inactive: dose: 50.0 mg/kg/injection, schedule: Q01DX001 (ip), vehicle: saline 109 % of control | [3] 103 % of control

CN(C)c1ccc(/C=C2\C=Cc3ccccc32)cc1F
inactive: [10] 92 % of control | [13] 100 % of control | [11] 95 % of control | [14] 94 % of control | [12] 97 % of control | [15] 98 % of control
